Experimental data published in PubChem BioAssay (NCI).
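Method: 48-hour compound exposure of cells in 96-well plates, five concentrations, linear interpolation of endpoints. At the TGI there is no net growth.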

Columns and labels:
Assay in all cases: NCI-60 cell line screen, 48 h
NCI/ADR-RES ovarian = system: NCI/ADR-RES ovarian
RXF 393 renal = system: RXF 393 renal
ACHN renal = system: ACHN renal
T-47D breast = system: T-47D breast
BT-549 breast = system: BT-549 breast
OVCAR-5 ovarian = system: OVCAR-5 ovarian
COLO 205 colon = system: COLO 205 colon
HOP-92 NSCLC = system: HOP-92 NSCLC
NCI-H226 lung = system: NCI-H226 lung
SF-539 CNS = system: SF-539 CNS

SMILES: COc1cccc2c1OC1(C=C2)Oc2ccccc2C(=O)N1C (stereo not drawn)
- TGI (NCI/ADR-RES ovarian): 26.9 µM
- TGI (RXF 393 renal): > 100 µM
- TGI (ACHN renal): > 100 µM
- TGI (T-47D breast): 99 µM
- TGI (BT-549 breast): 88.2 µM
- TGI (OVCAR-5 ovarian): > 100 µM
- TGI (COLO 205 colon): > 100 µM
- TGI (HOP-92 NSCLC): 98.2 µM
- TGI (NCI-H226 lung): 95.9 µM

SMILES: N#CC12C(=O)N=C(N)C1(C#N)C(c1ccco1)NC1=C2CCCC1 (stereo not drawn)
- TGI (NCI/ADR-RES ovarian): > 100 µM
- TGI (RXF 393 renal): > 100 µM
- TGI (ACHN renal): > 100 µM
- TGI (T-47D breast): > 100 µM
- TGI (BT-549 breast): > 100 µM
- TGI (OVCAR-5 ovarian): > 100 µM
- TGI (COLO 205 colon): > 100 µM
- TGI (HOP-92 NSCLC): > 100 µM
- TGI (NCI-H226 lung): > 100 µM

SMILES: O=S(=O)(CCn1c(Sc2ccccc2)c(Sc2ccccc2)c2ccccc21)c1ccccc1
- TGI (NCI/ADR-RES ovarian): > 100 µM
- TGI (ACHN renal): > 100 µM
- TGI (T-47D breast): > 100 µM
- TGI (BT-549 breast): > 100 µM
- TGI (OVCAR-5 ovarian): > 100 µM
- TGI (COLO 205 colon): > 100 µM
- TGI (SF-539 CNS): > 100 µM
- TGI (NCI-H226 lung): > 100 µM

SMILES: COc1cc(NS(C)(=O)=O)ccc1Nc1cc(C)[nH]c2ccc3nccc3c12
- TGI (NCI/ADR-RES ovarian): > 100 µM
- TGI (ACHN renal): > 100 µM
- TGI (T-47D breast): > 100 µM
- TGI (BT-549 breast): > 100 µM
- TGI (OVCAR-5 ovarian): > 100 µM
- TGI (COLO 205 colon): > 100 µM
- TGI (HOP-92 NSCLC): > 100 µM
- TGI (NCI-H226 lung): > 100 µM

SMILES: O=C(/C=C/c1ccc2c(c1)OCO2)CC(=O)C(=O)c1c[nH]c2ccccc12
- TGI (NCI/ADR-RES ovarian): > 100 µM
- TGI (RXF 393 renal): 96.6 µM
- TGI (ACHN renal): > 100 µM
- TGI (T-47D breast): 62.1 µM
- TGI (BT-549 breast): > 100 µM
- TGI (OVCAR-5 ovarian): > 100 µM
- TGI (COLO 205 colon): > 100 µM
- TGI (HOP-92 NSCLC): > 100 µM
- TGI (SF-539 CNS): > 100 µM

SMILES: O=C(O)/C=C(/C(=O)O)C12CCN3CC4=CCOC5CC(=O)NC1C5C4CC32 (stereo not drawn)
- TGI (NCI/ADR-RES ovarian): > 100 µM
- TGI (RXF 393 renal): > 100 µM
- TGI (ACHN renal): > 100 µM
- TGI (T-47D breast): > 100 µM
- TGI (BT-549 breast): > 100 µM
- TGI (OVCAR-5 ovarian): > 100 µM
- TGI (COLO 205 colon): > 100 µM
- TGI (HOP-92 NSCLC): > 100 µM
- TGI (SF-539 CNS): > 100 µM
- TGI (NCI-H226 lung): > 100 µM

SMILES: COP(=O)(/C=C/c1cc(C(=O)OCc2ccccc2)n(S(=O)(=O)c2ccccc2)c1)OC
- TGI (NCI/ADR-RES ovarian): > 100 µM
- TGI (RXF 393 renal): > 100 µM
- TGI (ACHN renal): > 100 µM
- TGI (T-47D breast): > 100 µM
- TGI (BT-549 breast): > 100 µM
- TGI (OVCAR-5 ovarian): > 100 µM
- TGI (COLO 205 colon): > 100 µM
- TGI (SF-539 CNS): > 100 µM

SMILES: O=C1c2ccccc2-c2c1c(-c1ccc(F)cc1)nc1ccc3ccccc3c21
- TGI (NCI/ADR-RES ovarian): > 100 µM
- TGI (RXF 393 renal): > 100 µM
- TGI (ACHN renal): > 100 µM
- TGI (T-47D breast): > 100 µM
- TGI (BT-549 breast): > 100 µM
- TGI (OVCAR-5 ovarian): > 100 µM
- TGI (COLO 205 colon): > 100 µM
- TGI (SF-539 CNS): > 100 µM
- TGI (NCI-H226 lung): > 100 µM

SMILES: CCOC(=O)C1=C(C)C2C=C(c3cccs3)CC(c3ccc(Cl)cc3)=C2OC1=O (stereo not drawn)
- TGI (NCI/ADR-RES ovarian): > 100 µM
- TGI (RXF 393 renal): > 100 µM
- TGI (ACHN renal): > 100 µM
- TGI (T-47D breast): 66.5 µM
- TGI (BT-549 breast): > 100 µM
- TGI (OVCAR-5 ovarian): > 100 µM
- TGI (COLO 205 colon): > 100 µM
- TGI (HOP-92 NSCLC): > 100 µM
- TGI (NCI-H226 lung): > 100 µM

SMILES: C=CCSc1nnc2cc(CN3CCCC3)c(-c3ccc(Cl)cc3)nn12
- TGI (NCI/ADR-RES ovarian): 56.3 µM
- TGI (RXF 393 renal): 31.5 µM
- TGI (ACHN renal): 38.3 µM
- TGI (T-47D breast): 71.4 µM
- TGI (BT-549 breast): 42.4 µM
- TGI (OVCAR-5 ovarian): 41.5 µM
- TGI (COLO 205 colon): 34.5 µM
- TGI (HOP-92 NSCLC): 34.3 µM
- TGI (SF-539 CNS): 36.2 µM
- TGI (NCI-H226 lung): 26.7 µM

SMILES: CC1(C)CCCC2OC2CCC(C)(C)C1=O (stereo not drawn)
- TGI (NCI/ADR-RES ovarian): > 100 µM
- TGI (RXF 393 renal): > 100 µM
- TGI (ACHN renal): > 100 µM
- TGI (T-47D breast): > 100 µM
- TGI (BT-549 breast): > 100 µM
- TGI (OVCAR-5 ovarian): > 100 µM
- TGI (COLO 205 colon): > 100 µM
- TGI (HOP-92 NSCLC): > 100 µM
- TGI (SF-539 CNS): > 100 µM
- TGI (NCI-H226 lung): > 100 µM

SMILES: CCC1(CC)C(=O)NN(C(=O)c2ccccc2)C1=O
- TGI (NCI/ADR-RES ovarian): > 100 µM
- TGI (RXF 393 renal): > 100 µM
- TGI (ACHN renal): > 100 µM
- TGI (T-47D breast): > 100 µM
- TGI (BT-549 breast): > 100 µM
- TGI (OVCAR-5 ovarian): > 100 µM
- TGI (COLO 205 colon): > 100 µM
- TGI (NCI-H226 lung): > 100 µM

SMILES: O=c1c2sc(=S)n(-c3ccc(F)cc3)c2ncn1/N=C/c1ccc(F)cc1F
- TGI (NCI/ADR-RES ovarian): > 100 µM
- TGI (RXF 393 renal): 45.5 µM
- TGI (ACHN renal): > 100 µM
- TGI (BT-549 breast): 37.5 µM
- TGI (OVCAR-5 ovarian): > 100 µM
- TGI (COLO 205 colon): > 100 µM
- TGI (HOP-92 NSCLC): 44 µM
- TGI (NCI-H226 lung): 87 µM

SMILES: [O-][n+]1ccccc1Sc1nc(Sc2cccc[n+]2[O-])nc(Sc2cccc[n+]2[O-])n1
- TGI (NCI/ADR-RES ovarian): 29.1 µM
- TGI (RXF 393 renal): 2.23 µM
- TGI (ACHN renal): 4.06 µM
- TGI (T-47D breast): 8.85 µM
- TGI (BT-549 breast): 4.96 µM
- TGI (OVCAR-5 ovarian): 3.61 µM
- TGI (COLO 205 colon): 2.3 µM
- TGI (HOP-92 NSCLC): 3.03 µM
- TGI (SF-539 CNS): 4.06 µM
- TGI (NCI-H226 lung): 6.78 µM

SMILES: Cc1cc(N(CCOS(C)(=O)=O)CCOS(C)(=O)=O)ccc1C=O
- TGI (NCI/ADR-RES ovarian): 60.5 µM
- TGI (BT-549 breast): > 100 µM
- TGI (OVCAR-5 ovarian): 33.8 µM
- TGI (COLO 205 colon): 4.39 µM
- TGI (HOP-92 NSCLC): 39 µM
- TGI (SF-539 CNS): 2.88 µM

SMILES: COc1cccc2c(=O)oc(-c3ccc(C(C)(C)C)cc3)nc12
- TGI (NCI/ADR-RES ovarian): > 100 µM
- TGI (RXF 393 renal): > 100 µM
- TGI (ACHN renal): > 100 µM
- TGI (T-47D breast): > 100 µM
- TGI (BT-549 breast): > 100 µM
- TGI (OVCAR-5 ovarian): > 100 µM
- TGI (COLO 205 colon): > 100 µM
- TGI (HOP-92 NSCLC): > 100 µM
- TGI (SF-539 CNS): > 100 µM

SMILES: CCN(CC)/C(SCc1ccccc1)=C(\C(Cl)=C(Cl)Cl)[N+](=O)[O-]
- TGI (NCI/ADR-RES ovarian): 38 µM
- TGI (RXF 393 renal): 26.6 µM
- TGI (ACHN renal): 29.8 µM
- TGI (T-47D breast): 86.7 µM
- TGI (OVCAR-5 ovarian): 41.2 µM
- TGI (COLO 205 colon): 38.9 µM
- TGI (SF-539 CNS): 39.4 µM
- TGI (NCI-H226 lung): 39.1 µM

SMILES: CCCCCCOc1ccc(C(=O)NOC)cc1
- TGI (NCI/ADR-RES ovarian): > 100 µM
- TGI (RXF 393 renal): > 100 µM
- TGI (ACHN renal): > 100 µM
- TGI (BT-549 breast): > 100 µM
- TGI (OVCAR-5 ovarian): > 100 µM
- TGI (COLO 205 colon): > 100 µM
- TGI (HOP-92 NSCLC): > 100 µM
- TGI (SF-539 CNS): > 100 µM
- TGI (NCI-H226 lung): > 100 µM

SMILES: COC(=O)C1CCC(=O)N1C(c1ccc(OC)cc1)c1ccc2c(c1)OCO2 (stereo not drawn)
- TGI (NCI/ADR-RES ovarian): > 100 µM
- TGI (ACHN renal): > 100 µM
- TGI (T-47D breast): > 100 µM
- TGI (BT-549 breast): > 100 µM
- TGI (OVCAR-5 ovarian): > 100 µM
- TGI (COLO 205 colon): > 100 µM
- TGI (HOP-92 NSCLC): > 100 µM
- TGI (SF-539 CNS): 98.6 µM
- TGI (NCI-H226 lung): > 100 µM

SMILES: COc1ccc2c(c1)/C(=C\c1c(Cl)nc3sc(C)cn13)C(=O)N2
- TGI (NCI/ADR-RES ovarian): 17.7 µM
- TGI (RXF 393 renal): 21.1 µM
- TGI (ACHN renal): 20.1 µM
- TGI (T-47D breast): 14.6 µM
- TGI (BT-549 breast): 20.5 µM
- TGI (OVCAR-5 ovarian): 25.4 µM
- TGI (COLO 205 colon): 9.45 µM
- TGI (HOP-92 NSCLC): 23.1 µM
- TGI (SF-539 CNS): 6.76 µM

SMILES: O=[N+]([O-])C(/C=C(\Cl)n1nnc2ccccc21)=C(/Cl)n1nnc2ccccc21
- TGI (NCI/ADR-RES ovarian): > 100 µM
- TGI (RXF 393 renal): > 100 µM
- TGI (ACHN renal): > 100 µM
- TGI (T-47D breast): > 100 µM
- TGI (OVCAR-5 ovarian): > 100 µM
- TGI (COLO 205 colon): > 100 µM
- TGI (HOP-92 NSCLC): > 100 µM
- TGI (SF-539 CNS): > 100 µM
- TGI (NCI-H226 lung): > 100 µM

SMILES: CCOC(=O)Cn1c(=O)c2nc(SC)sc2n(-c2ccccc2)c1=O
- TGI (RXF 393 renal): > 100 µM
- TGI (ACHN renal): > 100 µM
- TGI (BT-549 breast): > 100 µM
- TGI (OVCAR-5 ovarian): > 100 µM
- TGI (COLO 205 colon): > 100 µM
- TGI (HOP-92 NSCLC): > 100 µM
- TGI (NCI-H226 lung): > 100 µM

SMILES: O=C(O)CCC(=O)OC1N=C(c2ccccc2Cl)c2cc([N+](=O)[O-])ccc2NC1=O (stereo not drawn)
- TGI (NCI/ADR-RES ovarian): > 100 µM
- TGI (RXF 393 renal): > 100 µM
- TGI (ACHN renal): > 100 µM
- TGI (T-47D breast): > 100 µM
- TGI (BT-549 breast): > 100 µM
- TGI (OVCAR-5 ovarian): > 100 µM
- TGI (HOP-92 NSCLC): > 100 µM
